Reference: patent publication US12180226B2, “Spirotricycle RIPK1 inhibitors and methods of uses thereof” (Merck Sharp & Dohme LLC, priority 2021, dated 2024)

Target: RIPK1 (recombinant GST-RIPK1 kinase domain, residues 1-327) (Homo sapiens (Human), UniProt Q13546)
Assay: RIPK1-ADP-Glo Enzymatic Assay
Format: biochemical
Conditions: ADP-Glo; 25 nM GST-RIPK1, 300 μM ATP; assay lower limit ~25 nM; read-out: RIPK1 V0 Ec50
Outline: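 Enzyme from baculovirus-infected Sf21 cells, 25 nM final, was pre-incubated 30 min at ambient temperature with compound (ten-point, 1:3 dilution from 100000 nM, 1% DMSO), then reacted 150 min with 300 μM ATP and 3 μM dephosphorylated MBP. ADP was read by luminescence; EC50 from four-parameter fit.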

Chain of RIPK1 (recombinant GST-RIPK1 kinase domain, residues 1-327) (Q13546 1-327): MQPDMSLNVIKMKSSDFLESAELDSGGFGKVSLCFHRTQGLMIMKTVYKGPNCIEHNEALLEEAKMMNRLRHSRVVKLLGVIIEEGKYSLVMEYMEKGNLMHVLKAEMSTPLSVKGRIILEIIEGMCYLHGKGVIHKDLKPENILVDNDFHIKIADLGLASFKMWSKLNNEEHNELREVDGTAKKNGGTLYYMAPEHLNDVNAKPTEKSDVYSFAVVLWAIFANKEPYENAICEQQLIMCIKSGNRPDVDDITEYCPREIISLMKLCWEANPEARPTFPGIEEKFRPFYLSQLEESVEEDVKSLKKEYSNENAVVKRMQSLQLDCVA

| EC50 [µM] | Compound |
| --- | --- |
| < 0.025 | O=C1N2[C@@H](CC[C@H]2c2ccccc2)OC12CCN(c1ncnc3ccnn13)CC2F (single isomer, unassigned) [Example 4.97, (3[R or S],4[S or R], 5′S,7a′R)-3-fluoro-5′-phenyl-1-(pyrazolo [1,5-a][1,3,5]triazin-4-yl)tetrahydro-3′H-spiro[piperidine-4,2′-pyrrolo[2,1-b]oxazol]-3′-one] |
| 0.0453 | O=C(c1cc2ccccc2o1)N1CCC2(CC1)O[C@@H]1CC[C@@H](c3cc(F)cc(F)c3)N1C2=O [Example 5.69] |
